Melting point data for three compounds are collected here from patent US9290478B2, “Substituted quinoxalines as FGFR kinase inhibitors” (ASTEX THERAPEUTICS LTD, priority 2010, dated 2016).

“And” between values parts separate entries of the source, which are not always exact repeats. Identical values can stand only once. Counter-ions that a name gives are not always drawn.

What is called melting point is the temperature of the solid-liquid transition. Turning to `COc1cc(OC)cc(C(CCNC(C)C)c2ccc3ncc(-c4cnn(C)c4)nc3c2)c1` (single isomer, unassigned) (as salt: oxalic acid salt) [Compound 19a], the melting point was 163 °C and 162 °C.

The compound `COc1cc(OC)cc(C(CC(C)=O)c2ccc3ncc(-c4cnn(C)c4)nc3c2)c1` (stereo not drawn) [Compound 16] yielded a melting point of 154 °C.

In the case of `COc1cc(OC)cc(C(CCNC(C)C)c2ccc3ncc(-c4cnn(C)c4)nc3c2)c1` (single isomer, unassigned) (as salt: oxalic acid salt) [Compound 32a], the melting point worked out at 172 °C.
